Data published in patent US8652776B2, “Prediction of QT prolongation based on SNP genotype” (Vanda Pharmaceuticals, Inc., priority 2007, dated 2014).

Legend:
[1] = system: patients treated with iloperidone; assay: Occurrence of torsades de pointes in patients treated with iloperidone; type: in vivo, human; details: any patient treated with iloperidone, to date
[2] = system: patients with schizophrenia; assay: Change in QTcF from baseline to Day 14 by SNP genotype, phase 3 clinical trial of iloperidone (WGAS); type: in vivo, human; details: iloperidone 12 mg bid
Method: To identify new genetic markers of drug-induced QT prolongation, a whole genome association study (WGAS) was conducted as part of a phase 3 clinical trial of iloperidone. The clinical trial was a randomized, double-blind, placebo-, and ziprasidone-controlled multicenter study evaluating the efficacy, safety, and tolerability of a 24 mg/day dose of iloperidone administered twice a day (bid) for 28 days to patients with schizophrenia in acute exacerbation.
Therefore, the change in QT interval was calculated between baseline and Day 14. The Fridericia correction (QTcF) was applied, and a generalized linear model (GLM) statistical analysis using baseline as a covariate was performed. […] Analysis was focused on those SNPs located within or close to genes (<10 kb away) in which the minor genotype group included at least 10% of the patients. Six SNPs of interest were identified in the CERKL, SLCO3A1, BRUNOL4, NRG3, NUBPL, and PALLD genes (Table 1). The possibility that changes in the QT interval reflect drug concentration differences could not be excluded because drug exposure at the time of electrocardiography (ECG) was not known. However, the six SNPs identified here are within genes not expected to play roles in drug absorption, metabolism, or excretion. For these SNPs, genotype calls generated by the microarray set were confirmed by sequencing on a random subset of DNA samples of iloperidone-treated patients. The association of a particular genotype class with lower or higher increased QT was consistent between men and women and across races. Additional SNPs with statistical association at P<0.001 were observed within or near the CERKL, SLCO3A1, NRG3, NUBPL, and PALLD genes (FIGS. 1a-f).
Patients 18 to 65 years of age with diagnoses of schizophrenia according to the Diagnostic and Statistical Manual of Mental Disorders, 4th Edition (disorganized [295.10], paranoid [295.30], or undifferentiated [295.90]) were eligible to participate in the trial. Patients were randomly assigned to iloperidone 12 mg twice a day (bid), ziprasidone 80 mg bid (active control), or placebo. Doses were titrated to their respective target doses from Days 1 to 7 and were maintained until Day 28. Participation in the pharmacogenomic analysis was optional. Blood samples were collected, and DNA was extracted (Quest Diagnostics Laboratories, Van Nuys, Calif.) from 432 of 457 patients who consented to the optional WGAS, including 218 patients administered iloperidone. Of these iloperidone-treated patients, 183 (152 men and 31 women) with QT data at Day 14 were part of the WGAS reported here. They included 16 Asian, 69 white, and 91 black or African American patients and 7 patients of other ethnic origins.
Twelve-lead ECG was performed at baseline and on Days 7, 14, 21, and 28. Except at baseline, ECG was performed 2 hours after patients had received the morning dose of study drug. ECG was performed 3 times at baseline and on Day 14, with single measurements obtained for other visits. QTc interval was calculated based on QTcF. The effect of iloperidone on QTc interval was measured by the mean change from baseline in Qtc.
Genetic markers associated with prolongation of QTcF were identified through GLM analysis. The dependent variable was mean change from baseline to Day 14 because the effects on QT were greatest by Day 14, when iloperidone achieves steady state concentration. Baseline QTcF was used as a covariate, and genotype was used as the classifiable variable. The GLM used type 3 sums of squares, with all pairwise differences produced among the least squares means. Because 3 genetic models (AA vs non-AA; AB vs non-AB; BB vs non-BB) were tested for each of the 334,563 SNPs, a total of 1,003,689 tests were performed. The Benjamini and Hochberg (BH) procedure was used to control for the expected proportion of FDR. FDR corrections were obtained from PROC MULTTEST (SAS Institute, Cary, N.C.), which produces BH adjustments to original analytical P values. […]

## COc1cc(C(C)=O)ccc1OCCCN1CCC(c2noc3cc(F)ccc23)CC1 [Iloperidone, 1-[4-[3-[4-(6-fluoro-1,2-benzisoxazol-3-yl)-1-piperidinyl]propoxy]-3-methoxyphenyl]ethanone]
[1]
  torsades de pointes in treated patients: no evidence to date indicates that any patient treated with iloperidone has experienced torsades de pointes
[2]; rs993648 (CERKL) genotype CC, N=50
  mean change in QT (QTcF) from baseline to Day 14: 17.02 ms
[2]; rs993648 (CERKL) genotype CT (heterozygous), N=80
  mean change in QT (QTcF) from baseline to Day 14: 4.50 ms
[2]; rs993648 (CERKL) genotype CT (heterozygous), N=80, listed as iloperidone
  mean change in QT (QTcF) from baseline to Day 14: 4.5 ms
[2]; rs993648 (CERKL) genotype Non-CT (homozygous), N=94
  mean change in QT (QTcF) from baseline to Day 14: 17.81 ms
[2]; rs993648 (CERKL) genotype Non-CT (homozygous), N=94, listed as iloperidone
  mean change in QT (QTcF) from baseline to Day 14: 17.8 ms
[2]; rs993648 (CERKL) genotype TT, N=44
  mean change in QT (QTcF) from baseline to Day 14: 18.72 ms
[2]; rs3924426 (SLCO3A1) genotype CC, N=5
  mean change in QT (QTcF) from baseline to Day 14: -7.00 ms
[2]; rs3924426 (SLCO3A1) genotype CT, N=43
  mean change in QT (QTcF) from baseline to Day 14: 3.64 ms
[2]; rs3924426 (SLCO3A1) genotype Non-TT, N=48
  mean change in QT (QTcF) from baseline to Day 14: 2.53 ms
[2]; rs3924426 (SLCO3A1) genotype Non-TT, N=48, listed as iloperidone
  mean change in QT (QTcF) from baseline to Day 14: 2.5 ms
[2]; rs3924426 (SLCO3A1) genotype TT, N=135
  mean change in QT (QTcF) from baseline to Day 14: 14.99 ms
[2]; rs3924426 (SLCO3A1) genotype TT, N=135, listed as iloperidone
  mean change in QT (QTcF) from baseline to Day 14: 15.0 ms
[2]; rs4799915 (BRUNOL4) genotype CC, N=48
  mean change in QT (QTcF) from baseline to Day 14: 2.88 ms
[2]; rs4799915 (BRUNOL4) genotype CC, N=48, listed as iloperidone
  mean change in QT (QTcF) from baseline to Day 14: 2.9 ms
[2]; rs4799915 (BRUNOL4) genotype CT, N=78
  mean change in QT (QTcF) from baseline to Day 14: 13.52 ms
[2]; rs4799915 (BRUNOL4) genotype Non-CC, N=132
  mean change in QT (QTcF) from baseline to Day 14: 14.46 ms
[2]; rs4799915 (BRUNOL4) genotype Non-CC, N=132, listed as iloperidone
  mean change in QT (QTcF) from baseline to Day 14: 14.5 ms
[2]; rs4799915 (BRUNOL4) genotype TT, N=54
  mean change in QT (QTcF) from baseline to Day 14: 15.81 ms
[2]; rs4933824 (NRG3) genotype GG, N=124
  mean change in QT (QTcF) from baseline to Day 14: 15.33 ms
[2]; rs4933824 (NRG3) genotype GG, N=124, listed as iloperidone
  mean change in QT (QTcF) from baseline to Day 14: 15.3 ms
[2]; rs4933824 (NRG3) genotype GT, N=47
  mean change in QT (QTcF) from baseline to Day 14: 4.62 ms
[2]; rs4933824 (NRG3) genotype Non-GG, N=57
  mean change in QT (QTcF) from baseline to Day 14: 4.41 ms
[2]; rs4933824 (NRG3) genotype Non-GG, N=57, listed as iloperidone
  mean change in QT (QTcF) from baseline to Day 14: 4.4 ms
[2]; rs4933824 (NRG3) genotype TT, N=10
  mean change in QT (QTcF) from baseline to Day 14: 3.41 ms
[2]; rs7142881 (NUBPL) genotype AA, N=28
  mean change in QT (QTcF) from baseline to Day 14: 17.65 ms
[2]; rs7142881 (NUBPL) genotype AG, N=71
  mean change in QT (QTcF) from baseline to Day 14: 16.35 ms
[2]; rs7142881 (NUBPL) genotype GG, N=79
  mean change in QT (QTcF) from baseline to Day 14: 5.67 ms
[2]; rs7142881 (NUBPL) genotype GG, N=79, listed as iloperidone
  mean change in QT (QTcF) from baseline to Day 14: 5.7 ms
[2]; rs7142881 (NUBPL) genotype Non-GG, N=99
  mean change in QT (QTcF) from baseline to Day 14: 16.71 ms
[2]; rs7142881 (NUBPL) genotype Non-GG, N=99, listed as iloperidone
  mean change in QT (QTcF) from baseline to Day 14: 16.7 ms
[2]; rs17054392 (PALLD) genotype CC, N=2
  mean change in QT (QTcF) from baseline to Day 14: 17.33 ms
[2]; rs17054392 (PALLD) genotype CT (heterozygous), N=30
  mean change in QT (QTcF) from baseline to Day 14: -0.69 ms
[2]; rs17054392 (PALLD) genotype CT (heterozygous), N=30, listed as iloperidone
  mean change in QT (QTcF) from baseline to Day 14: -0.7 ms
[2]; rs17054392 (PALLD) genotype Non-CT, N=153
  mean change in QT (QTcF) from baseline to Day 14: 14.16 ms
[2]; rs17054392 (PALLD) genotype Non-CT, N=153, listed as iloperidone
  mean change in QT (QTcF) from baseline to Day 14: 14.2 ms
[2]; rs17054392 (PALLD) genotype TT, N=151
  mean change in QT (QTcF) from baseline to Day 14: 14.12 ms
